Experimental data from patent publication US11986471B2, “Compounds and methods of use” (Tango Therapeutics, Inc., priority 2018, dated 2024).

Key:
PRMT5 [1] = target: T1, PRMT5 (Homo sapiens, UniProt O14744); test: PRMT5 IC50 assay in the presence of MTA as cofactor; type: biochemical; details: for IC50: PRMT5, MTA as cofactor
T1 construct: purchased Viva (custom protein)
Procedure, shortened: (§1)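 Each compound is tested on PRMT5 in the presence of SAM, of MTA, and without any cofactor. Ki values are then back-calculated using fixed factors of 1.5 (SAM) and 13.5 (MTA), and the two Ki values are compared as a ratio.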

HAP1 MTAP-deleted = test: SDMA in-cell western assay, HAP1 MTAP-deleted cell line; type: cell-based; details: for IC50: Homo sapiens, HAP1 MTAP-deleted cell line; for MTAP Intact/Deleted Ratio: IC50 ratio HAP1 MTAP-intact / HAP1 MTAP-deleted
Procedure, shortened: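 MTAP-null HAP1 cells, the deleted member of an isogenic pair with endogenously MTAP-expressing HAP1, are treated with compound. SDMA is then quantified by in-cell western and an IC50 is calculated.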

PRMT5 [2] = target: T1, PRMT5; test: PRMT5 IC50 assay in the presence of SAM as cofactor; type: biochemical
Procedure, shortened: as §1

HAP1 MTAP-intact = test: SDMA in-cell western assay, HAP1 MTAP-intact cell line; type: cell-based; details: Homo sapiens
Procedure, shortened: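 Cells from two matched HAP1 lines, MTAP-null and MTAP-expressing at endogenous levels, are treated with compound. SDMA is then quantified by in-cell western and an IC50 is calculated for each line.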

PRMT5 [3] = target: T1, PRMT5; test: PRMT5 IC50 assay with no cofactor; type: biochemical
Procedure, shortened: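 Three cofactor conditions are run: SAM-bound, MTA-bound and cofactor-free enzyme. IC50 is read from each; for the SAM and MTA arms it is divided by 1.5 and 13.5 respectively to give Ki.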

[4] = ratio between the Ki in the presence of SAM and the Ki in the presence of MTA
[5] = ratio between Ki in the presence of SAM and Ki in the presence of MTA

T1 sequence (O14744 whole entry): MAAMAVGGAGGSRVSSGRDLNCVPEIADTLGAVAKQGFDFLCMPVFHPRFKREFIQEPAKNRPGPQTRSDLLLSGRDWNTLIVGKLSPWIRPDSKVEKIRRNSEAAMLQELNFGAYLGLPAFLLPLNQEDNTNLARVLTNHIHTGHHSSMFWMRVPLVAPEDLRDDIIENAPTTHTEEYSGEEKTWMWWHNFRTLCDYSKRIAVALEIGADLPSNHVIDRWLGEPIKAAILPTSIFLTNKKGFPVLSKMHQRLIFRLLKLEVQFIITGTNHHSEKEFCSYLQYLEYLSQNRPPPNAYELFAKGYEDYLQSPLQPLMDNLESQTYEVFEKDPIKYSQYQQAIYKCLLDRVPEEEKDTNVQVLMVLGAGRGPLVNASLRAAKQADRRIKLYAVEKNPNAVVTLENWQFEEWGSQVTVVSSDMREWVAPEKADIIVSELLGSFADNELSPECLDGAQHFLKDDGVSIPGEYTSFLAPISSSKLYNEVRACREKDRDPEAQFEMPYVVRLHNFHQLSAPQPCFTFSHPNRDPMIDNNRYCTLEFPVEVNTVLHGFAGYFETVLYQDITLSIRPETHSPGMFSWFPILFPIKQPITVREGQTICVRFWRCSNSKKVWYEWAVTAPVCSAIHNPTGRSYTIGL
T1 sequence (Q9BQA1 whole entry partner): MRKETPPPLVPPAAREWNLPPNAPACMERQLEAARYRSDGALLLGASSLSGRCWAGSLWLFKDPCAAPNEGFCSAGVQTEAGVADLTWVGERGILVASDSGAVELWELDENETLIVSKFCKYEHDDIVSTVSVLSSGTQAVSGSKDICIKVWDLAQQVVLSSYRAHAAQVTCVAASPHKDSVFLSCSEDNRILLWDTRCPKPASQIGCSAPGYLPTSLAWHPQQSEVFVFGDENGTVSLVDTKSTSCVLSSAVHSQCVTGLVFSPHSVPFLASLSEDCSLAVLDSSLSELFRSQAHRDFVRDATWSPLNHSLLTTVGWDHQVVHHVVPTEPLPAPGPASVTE

| IC50 (PRMT5 [1]) | IC50 (HAP1 MTAP-deleted) | IC50 (PRMT5 [2]) | IC50 (HAP1 MTAP-intact) | IC50 (PRMT5 [3]) | IC50 (PRMT5 [3]; read-out: No Co-factor IC50) | SMILES | SAM/MTA Ratio (PRMT5 [1]; [4]) | MTAP Intact/Deleted Ratio (HAP1 MTAP-deleted) | SAM/MTA Ratio (PRMT5 [1]; [5]) |
| --- | --- | --- | --- | --- | --- | --- | --- | --- | --- |
| 50 to 500 nM | < 1000 nM | 50 to 500 nM | ≥ 10000 nM |  | 500 to 5000 nM | CCC(=O)N1CCN(c2cc(C(=O)NC[C@H](O)CN3CCc4c(ccc(OCc5ocnc5C)c4C)C3)cc(NC3CCC3)n2)CC1 [Compound 417, 2-(cyclobutylamino)-N-[(2S)-2-hydroxy-3-{5-methyl-6-[(4-methyl-1,3-oxazol-5-yl)methoxy]-1,2,3,4-tetrahydroisoquinolin-2-yl}propyl]-6-(4-propanoylpiperazin-1-yl)pyridine-4-carboxamide] |  | A* (an IC50 ratio greater than or equal to 10 fold between the IC50 in the HAP1 MTAP-intact cell line and the HAP1 MTAP-deleted cell line) | A (a Ki ratio greater than or equal to 10 fold between the Ki in the presence of SAM and the Ki in the presence of MTA) |
| 50 to 500 nM | < 1000 nM | 50 to 500 nM | 1000 to 10000 nM | 500 to 5000 nM |  | CC(=O)N1CC(Nc2cc(C(=O)NC[C@H](O)CN3CCc4cc(OCc5ocnc5C)ccc4C3)nc(C(C)(C)C)n2)C1 [Compound 564, (S)-6-((1-acetylazetidin-3-yl)amino)-2-(tert-butyl)-N-(2-hydroxy-3-(6-((4-methyloxazol-5-yl)methoxy)-3,4-dihydroisoquinolin-2(1H)-yl)propyl)pyrimidine-4-carboxamide] | A (a Ki ratio greater than or equal to 10 fold between the Ki in the presence of SAM and the Ki in the presence of MTA) | B* (an IC50 ratio greater than or equal to 3 fold but lower than 10 fold between the IC50 in the HAP1 MTAP-intact cell line and the HAP1 MTAP-deleted cell line) |  |
| 50 to 500 nM | 1000 to 10000 nM | 50 to 500 nM | ≥ 10000 nM | 500 to 5000 nM |  | CC(=O)N1CCC(Nc2cc(C(=O)NC[C@H](O)CN3CCc4c(C)c(OCc5ocnc5C)cc(F)c4C3)ncn2)CC1 [Compound 618, 6-[(1-acetyl-4-piperidyl)amino]-N-[(2S)-3-[8-fluoro-5-methyl-6-[(4-methyloxazol-5-yl)methoxy]-3,4-dihydro-1H-isoquinolin-2-yl]-2-hydroxy-propyl]pyrimidine-4-carboxamide] |  | B* (an IC50 ratio greater than or equal to 3 fold but lower than 10 fold between the IC50 in the HAP1 MTAP-intact cell line and the HAP1 MTAP-deleted cell line) |  |
| 500 to 5000 nM | 1000 to 10000 nM | 500 to 5000 nM | 1000 to 10000 nM |  | 500 to 5000 nM | O=C(NC[C@H](O)CN1CCc2cc(OCc3cnco3)ccc2C1)c1cc(NC2CCC2)nc(N2CCCCC2)c1 [Compound 320, (S)-2-(cyclobutylamino)-N-(2-hydroxy-3-(6-(oxazol-5-ylmethoxy)-3,4-dihydroisoquinolin-2(1H)-yl)propyl)-6-(piperidin-1-yl)isonicotinamide] |  | C* (an IC50 ratio of less than 3 fold between the IC50 in the HAP1 MTAP-intact cell line and the HAP1 MTAP-deleted cell line) |  |

The remaining lines, values behind:

| SMILES | IC50 (PRMT5 [1]) | IC50 (HAP1 MTAP-deleted) | IC50 (PRMT5 [2]) | IC50 (HAP1 MTAP-intact) | IC50 (PRMT5 [3]) | IC50 (PRMT5 [3]; read-out: No Co-factor IC50) | SAM/MTA Ratio (PRMT5 [1]; [4]) | MTAP Intact/Deleted Ratio (HAP1 MTAP-deleted) | SAM/MTA Ratio (PRMT5 [1]; [5]) |
| --- | --- | --- | --- | --- | --- | --- | --- | --- | --- |
| Cc1ncoc1COc1ccc2c(c1)CCN(C[C@@H](O)CNC(=O)c1cc(Nc3cccnc3)nc(N3CCCCC3)c1)C2 [Compound 601] | < 50 nM | < 1000 nM | 50 to 500 nM | < 1000 nM | 500 to 5000 nM |  | A (a Ki ratio greater than or equal to 10 fold between the Ki in the presence of SAM and the Ki in the presence of MTA) | B* (an IC50 ratio greater than or equal to 3 fold but lower than 10 fold between the IC50 in the HAP1 MTAP-intact cell line and the HAP1 MTAP-deleted cell line) |  |
| CN(C)CCOc1cc(C(=O)NC[C@H](O)CN2CCc3cc(OCc4cnco4)ccc3C2)cc(NC2CCC2)n1 [Compound 315, (S)-2-(cyclobutylamino)-6-(2-(dimethylamino)ethoxy)-N-(2-hydroxy-3-(6-(oxazol-5-ylmethoxy)-3,4-dihydroisoquinolin-2(1H)-yl)propyl)isonicotinamide] | < 50 nM | < 1000 nM | 50 to 500 nM | 1000 to 10000 nM |  | 500 to 5000 nM |  | C* (an IC50 ratio of less than 3 fold between the IC50 in the HAP1 MTAP-intact cell line and the HAP1 MTAP-deleted cell line) | A (a Ki ratio greater than or equal to 10 fold between the Ki in the presence of SAM and the Ki in the presence of MTA) |
| CC(=O)N1CCC(Nc2cc(C(=O)NC[C@H](O)CN3CCc4cc(OCc5ccnn5C)ccc4C3)ncn2)CC1 [Compound 140, 6-[(1-acetyl-4-piperidyl)amino]-N-[(2S)-2-hydroxy-3-[6-[(2-methylpyrazol-3-yl)methoxy]-3N-dihydro-1H-isoquinolin-2-yl]propyl]pyrimidine-4-carboxamide] | 50 to 500 nM | ≥ 10000 nM | 500 to 5000 nM | ≥ 10000 nM |  | ≥ 5000 nM |  | C* (an IC50 ratio of less than 3 fold between the IC50 in the HAP1 MTAP-intact cell line and the HAP1 MTAP-deleted cell line) | A (a Ki ratio greater than or equal to 10 fold between the Ki in the presence of SAM and the Ki in the presence of MTA) |
| CC(C)C(=O)N1CCN(c2cc(C(=O)NC[C@H](O)CN3CCc4cc(OCc5cnco5)ccc4C3)cc(NC3CCC3)n2)CC1 [Compound 481, (S)-2-(cyclobutylamino)-N-(2-hydroxy-3-(6-(oxazol-5-ylmethoxy)-3,4-dihydroisoquinolin-2(1H)-yl)propyl)-6-(4-isobutyrylpiperazin-1-yl)isonicotinamide] | 50 to 500 nM | < 1000 nM | 50 to 500 nM | < 1000 nM | 500 to 5000 nM |  | A (a Ki ratio greater than or equal to 10 fold between the Ki in the presence of SAM and the Ki in the presence of MTA) | C* (an IC50 ratio of less than 3 fold between the IC50 in the HAP1 MTAP-intact cell line and the HAP1 MTAP-deleted cell line) |  |
| CC(=O)N1CCC(Nc2cc(C(=O)NC[C@H](O)CN3CCc4cc(OCc5ocnc5C)ccc4C3)cc(N(C)C3CCC3)n2)CC1 [Compound 628, (S)-2-((1-acetylpiperidin-4-yl)amino)-6-(cyclobutyl(methyl)amino)-N-(2-hydroxy-3-(6-((4-methyloxazol-5-yl)methoxy)-3,4-dihydroisoquinolin-2(1H)-yl)propyl)isonicotinamide] | < 50 nM | < 1000 nM | 50 to 500 nM | 1000 to 10000 nM |  | 500 to 5000 nM |  | B* (an IC50 ratio greater than or equal to 3 fold but lower than 10 fold between the IC50 in the HAP1 MTAP-intact cell line and the HAP1 MTAP-deleted cell line) | A (a Ki ratio greater than or equal to 10 fold between the Ki in the presence of SAM and the Ki in the presence of MTA) |
| CC(C)N1CCN(c2nc(NC3COC3)cc(C(=O)NC[C@H](O)CN3CCc4c(ccc(OCc5cnco5)c4Cl)C3)n2)CC1 [Compound 293, (S)—N-(3-(5-chloro-6-(oxazol-5-ylmethoxy)-3N-dihydroisoquinolin-2(1H)-yl)-2-hydroxypropyl)-2-(4-isopropylpiperazin-1-yl)-6-(oxetan-3-ylamino)pyrimidine-4-carboxamide] | 50 to 500 nM | ≥ 10000 nM | 500 to 5000 nM | ≥ 10000 nM |  | 500 to 5000 nM |  | C* (an IC50 ratio of less than 3 fold between the IC50 in the HAP1 MTAP-intact cell line and the HAP1 MTAP-deleted cell line) | A (a Ki ratio greater than or equal to 10 fold between the Ki in the presence of SAM and the Ki in the presence of MTA) |
| COc1cc(C(=O)NC[C@H](O)CN2CCc3cc(OCc4cnco4)ccc3C2)cc(NC2CCC2)n1 [Compound 310, (S)-2-(cyclobutylamino)-N-(2-hydroxy-3-(6-(oxazol-5-ylmethoxy)-3,4-dihydroisoquinolin-2(1H)-yl)propyl)-6-methoxyisonicotinamide] | 50 to 500 nM | 1000 to 10000 nM | 500 to 5000 nM | 1000 to 10000 nM |  | ≥ 5000 nM |  | B* (an IC50 ratio greater than or equal to 3 fold but lower than 10 fold between the IC50 in the HAP1 MTAP-intact cell line and the HAP1 MTAP-deleted cell line) | A (a Ki ratio greater than or equal to 10 fold between the Ki in the presence of SAM and the Ki in the presence of MTA) |
| O=C(NC[C@H](O)CN1CCc2c(ccc(OCc3cnco3)c2Cl)C1)c1ccc(OC2CCN(Cc3ccccc3)CC2)cc1 [Compound 330, (S)-4-((1-benzylpiperidin-4-yl)oxy)-N-(3-(5-chloro-6-(oxazol-5-ylmethoxy)-3,4-dihydroisoquinolin-2(1H)-yl)-2-hydroxypropyl)benzamide] | 50 to 500 nM | ≥ 10000 nM | 50 to 500 nM | ≥ 10000 nM |  | 500 to 5000 nM |  | C* (an IC50 ratio of less than 3 fold between the IC50 in the HAP1 MTAP-intact cell line and the HAP1 MTAP-deleted cell line) | A (a Ki ratio greater than or equal to 10 fold between the Ki in the presence of SAM and the Ki in the presence of MTA) |
